Values of other authors in US20040097481A1, “Water-soluble mesoporphyrin compounds and methods of preparation” (priority 2002, published 2004).

Settings: product of the above-referenced known preparation methods

CCC1=C(C)c2cc3[n-]c(cc4[n-]c(cc5nc(cc1n2)C(C)=C5CC)c(C)c4CCC(=O)O)c(CCC(=O)O)c3C.[Cl-].[Cl-].[Sn+4] [stannsoporfin, Tin (IV) mesoporphyrin IX chloride]
Water solubility: non-water soluble
